The record followed here is US20100099770A1, “METHOD FOR TREATING DIABETIC PERIPHERAL NEUROPATHIC PAIN” (SCHWARZ PHARMA AG, priority 2001, published 2010).

Assay [1] deals with neuropathic pain (CHUNG), thermal stimulation. Put plainly: Neuropathic pain (CHUNG) test, thermal stimulation on lesioned paw. In kind it is in vivo, rat. The source says:
(§1) The following Tables 8 and 9 show the effects of harkoseride (hereinafter referred tows SPM 927), carbamazepine, levetiracetam, gabapentin and morphine in the neuropathic pain (CHUNG) test in the rat. Eight (8) rats per group were used.

Assay [2] concerns neuropathic pain (CHUNG), tactile stimulation. Put plainly: Neuropathic pain (CHUNG) test, tactile stimulation on lesioned paw. The class given is in vivo, rat. The following applies: for FORCE INDUCING PAW-WITHDRAWAL, % change: compared with lesioned control; for FORCE INDUCING PAW-WITHDRAWAL, mean ± s.e.m.: lesioned paw.
Excerpt: as §1

Assay [3] deals with formalin-induced nociception (paw licking). Put plainly: Subchronic inflammatory nociception in mice (formalin test). The class given is in vivo. The note with it: for nociceptive threshold, early phase: 0-5 min after formalin (acute pain); for nociceptive threshold, late phase: 20-30 min after formalin (subchronic inflammatory pain). The procedure:
Subchronic inflammatory nocicpetion in mice was induced by the subplantar injection of formalin (0.02 ml of a 5% solution). Nociceptive behaviour (paw licking) was measured and quantified between 0 and 5 min (acute pain) and between 20 and 30 min (subchronic inflammatory pain) after formalin.
(§2) Drugs and experimental design: SPM 927 and GBP were suspended in 1% methylcellulose and administered i.p. at doses of 10 mg/kg, 20 mg/kg and 40 mg/kg. Pre-treatment time was 30 min before pain measurement. One group of animals served as controls and consequently received an injection of solvent (10 ml/kg) and another group of animals received a reference compound (Carrageenan test: 10 mg/kg indomethacin; Formalin test: 10 mg/kg morphine). Each compound was tested in a separate experiment and each experiment included a control and a reference group. 10 rats per group were used in the Carrageenan test and 6 mice per group in the formalin test.

Assay [4] relates to Carrageenan-induced mechanical hyperalgesia. Put plainly: Carrageenan-induced mechanical hyperalgesia, paw pressure (Randall-Sellito) test. In kind it is in vivo, rats. The following applies: for nociceptive threshold: inflamed paw, 3 h after carrageenan. As for the experimental part: Carrageenan-induced mechanical hyperalgesia in rats was induced by subplantar injection of a 0.1 ml of a 2% carrageenan suspension and measured 3 h afterwards by the paw pressure (Randall-Sellito) test.
as §2

The mark [5] stands for this setting: 16 mg/kg i.p. -30 min, compared with lesioned control.
The mark [6] stands for this setting: 16 mg/kg i.p. -30 min, lesioned paw.
Where [7] appears, read: 32 mg/kg i.p. -30 min, compared with lesioned control.
[8] abbreviates: 32 mg/kg i.p. -30 min, lesioned paw.
The mark [9] stands for this setting: 64 mg/kg i.p. -30 min, compared with lesioned control.
[10] abbreviates: 64 mg/kg i.p. -30 min, lesioned paw.
The mark [11] stands for this setting: 10 mg/kg i.p. 30 min before measurement.

Values joined by “and” are separate entries in the source; they are usually repeats but may differ in a detail not shown here. Equal entries are not always repeated. Marks after values point to notes of the source that are not given here.

On to `CN1CC[C@]23c4c5ccc(O)c4O[C@H]2[C@@H](O)C=C[C@H]3[C@H]1C5` [Morphine, morphine], for which, in assay [1] (setting [5]), the “PAW-[…], % change” value is “+160% (b)”. The “PAW-[…], mean ± s.e.m.” value in assay [1] (setting [6]) is on record as 42.4 ± 1.9 (b) sec. Moreover, in assay [2] (16 mg/kg i.p. -30 min), the “FORCE INDUCING PAW-WITHDRAWAL, % change” value is listed as “+164% (b)” and the “FORCE INDUCING PAW-WITHDRAWAL, mean ± s.e.m.” value was 45.9 ± 8.8 (b) g. The “nociceptive threshold, early phase” value in assay [3] (10 mg/kg i.p.) is 8 ± 6^a s and 6 ± 3^a s.
Turning to `NCC1(CC(=O)O)CCCCC1` [GBP, gabapentin], the “PAW-WITHDRAWAL LATENCY, % change” value is recorded as “+18% (b)” in assay [1] (setting [7]); “+75% (b)” in assay [1] (setting [9]); “+66% (b)” in assay [1] (128 mg/kg i.p. -30 min, compared with lesioned control). Also, the “PAW-WITHDRAWAL LATENCY, mean ± s.e.m.” value in assay [1] (setting [8]) is given as 19.3 ± 3.6 NS (b) sec; in assay [1] (setting [10]), 28.5 ± 5.4 NS (b) sec; in assay [1] (128 mg/kg i.p. -30 min, lesioned paw), 27.1 ± 5.2 NS (b) sec. Moreover, the nociceptive threshold in assay [4] (setting [11]) turned out to be 254 ± 39; in assay [4] (20 mg/kg i.p. 30 min before measurement), 296 ± 31; in assay [4] (40 mg/kg i.p. 30 min before measurement), 282 ± 33. The “effect on Carrageenan-induced mechanical hyperalgesia (in words)” value in assay [4] (10, 20, 40 mg/kg i.p.) was “no significant effect”. Also, the “FORCE INDUCING PAW-WITHDRAWAL, % change” value in assay [2] (32 mg/kg i.p. -30 min) is listed as −1% (b); in assay [2] (64 mg/kg i.p. -30 min), “+35% (b)”; in assay [2] (128 mg/kg i.p. -30 min) it was “+93% (b)”. For the same molecule, the “FORCE INDUCING PAW-WITHDRAWAL, mean ± s.e.m.” value in assay [2] (32 mg/kg i.p. -30 min) is 17.2 ± 3.0 NS (b) g; in assay [2] (64 mg/kg i.p. -30 min) it was 23.5 ± 4.2 NS (b) g; in assay [2] (128 mg/kg i.p. -30 min), 33.6 ± 6.7 (b) g. The “nociceptive threshold, early phase” value is recorded as 98 ± 20 s in assay [3] (10 mg/kg i.p.), 102 ± 17 s in assay [3] (20 mg/kg i.p.) and 72 ± 10 s in assay [3] (40 mg/kg i.p.). Besides, the “nociceptive threshold, late phase” value in assay [3] (10 mg/kg i.p.) was found to be 133 ± 30 s; in assay [3] (20 mg/kg i.p.), 118 ± 13 s; in assay [3] (40 mg/kg i.p.), 73 ± 13 s. Further, the “effect on formalin-induced nociceptive response (in words)” value in assay [3] (10, 20, 40 mg/kg i.p.) was “slightly but not significantly inhibited”.
Take `NC(=O)N1c2ccccc2C=Cc2ccccc21` [Carbamazepine, carbamazepine]: the “PAW-WITHDRAWAL LATENCY, % change” value is listed as “+118% (b)” in assay [1] (setting [5]), “+39% (b)” in assay [1] (setting [7]) and “+77% (b)” in assay [1] (setting [9]). The “PAW-WITHDRAWAL LATENCY, mean ± s.e.m.” value in assay [1] (setting [6]) was 35.6 ± 4.1 (b) sec; in assay [1] (setting [8]), 22.7 ± 4.3 NS (b) sec; in assay [1] (setting [10]) it was 28.8 ± 6.9 NS (b) sec. Besides, the “FORCE INDUCING PAW-WITHDRAWAL, % change” value is reported as “+21% (b)” in assay [2] (16 mg/kg i.p. -30 min), “+121% (b)” in assay [2] (32 mg/kg i.p. -30 min) and “+125% (b)” in assay [2] (64 mg/kg i.p. -30 min). For the same molecule, the “FORCE INDUCING PAW-WITHDRAWAL, mean ± s.e.m.” value was 21.0 ± 2.3 NS (b) g in assay [2] (16 mg/kg i.p. -30 min), 38.4 ± 8.1 (b) g in assay [2] (32 mg/kg i.p. -30 min) and 39.2 ± 9.1 (b) g in assay [2] (64 mg/kg i.p. -30 min).
As for `CC[C@@H](C(N)=O)N1CCCC1=O` [Levetiracetam, levetiracetam], the “PAW-WITHDRAWAL LATENCY, % change” value in assay [1] (setting [5]) was “+17% (b)”; in assay [1] (setting [7]) it was “+5% (b)”; in assay [1] (setting [9]), “+63% (b)”. Further, the entries for the “PAW-WITHDRAWAL LATENCY, mean ± s.e.m.” value in assay [1] (setting [6]), in assay [1] (setting [8]) and in assay [1] (setting [10]) were 19.0 ± 3.6 NS (b) sec, 17.1 ± 2.9 NS (b) sec and 26.6 ± 6.0 NS (b) sec, respectively. For the same molecule, the entries for the “FORCE INDUCING PAW-WITHDRAWAL, % change” value in assay [2] (16 mg/kg i.p. -30 min), in assay [2] (32 mg/kg i.p. -30 min) and in assay [2] (64 mg/kg i.p. -30 min) were “+32% (b)”, “+44% (b)” and “+14% (b)”, respectively. Besides, the “FORCE INDUCING PAW-WITHDRAWAL, mean ± s.e.m.” value in assay [2] (16 mg/kg i.p. -30 min) is reported as 23.0 ± 4.0 NS (b) g; in assay [2] (32 mg/kg i.p. -30 min), 25.0 ± 5.2 NS (b) g; in assay [2] (64 mg/kg i.p. -30 min), 19.8 ± 4.1 NS (b) g.
For `COc1ccc2c(c1)c(CC(=O)O)c(C)n2C(=O)c1ccc(Cl)cc1` [Indomethacin, indomethacin], in assay [4] (setting [11]), the nociceptive threshold is 370 ± 15^b and 384 ± 11^b.
